# Reference: ChEMBL document CHEMBL1150608, “Five new labdane diterpenes from Aster oharai” (2002)
# Test system: A549
# Assay: Cytotoxicity against human A549 cells by sulforhodamine B method
# Assay type: functional
# Settings: read-out: ED50 (the source's name)
row,SMILES,EC50 [µg/mL]
1,C=C[C@@](C)(CC[C@H]1C(C)=CC[C@H]2C(C)(C)CCC[C@]12C)O[C@@H]1O[C@@H](C)[C@H](O)[C@@H](O)[C@H]1OC(C)=O,> 10
2,C=C[C@@](C)(CCC1=C(C)[C@H](OO)C[C@H]2C(C)(C)CCC[C@]12C)O[C@@H]1O[C@@H](C)[C@@H](OC(C)=O)[C@H](O)[C@H]1O,> 10
3,C=C[C@@](C)(CC[C@H]1C(C)=CC[C@H]2C(C)(C)CCC[C@]12C)O[C@@H]1O[C@@H](C)[C@H](OC(C)=O)[C@@H](O)[C@H]1O,> 10
4,C=C[C@@](C)(CC[C@H]1C(C)=CC[C@H]2C(C)(C)CCC[C@]12C)O[C@@H]1O[C@@H](C)[C@H](O)[C@@H](OC(C)=O)[C@H]1O,> 10
5,COc1cccc2c1C(=O)c1c(O)c3c(c(O)c1C2=O)C[C@@](O)(C(=O)CO)C[C@@H]3O[C@H]1C[C@H](N)[C@H](O)[C@H](C)O1 [DOXORUBICIN],0.001

# Test system: LOX IMVI
# Assay: Cytotoxicity against human LOXIMVI cells by sulforhodamine B method
# Assay type: functional
# Settings: read-out: ED50 (the source's name)
row,SMILES,EC50 [µg/mL]
1,C=C[C@@](C)(CC[C@H]1C(C)=CC[C@H]2C(C)(C)CCC[C@]12C)O[C@@H]1O[C@@H](C)[C@H](O)[C@@H](O)[C@H]1OC(C)=O,> 10
2,C=C[C@@](C)(CCC1=C(C)[C@H](OO)C[C@H]2C(C)(C)CCC[C@]12C)O[C@@H]1O[C@@H](C)[C@@H](OC(C)=O)[C@H](O)[C@H]1O,> 10
3,C=C[C@@](C)(CC[C@H]1C(C)=CC[C@H]2C(C)(C)CCC[C@]12C)O[C@@H]1O[C@@H](C)[C@H](OC(C)=O)[C@@H](O)[C@H]1O,> 10
4,C=C[C@@](C)(CC[C@H]1C(C)=CC[C@H]2C(C)(C)CCC[C@]12C)O[C@@H]1O[C@@H](C)[C@H](O)[C@@H](OC(C)=O)[C@H]1O,> 10
5,COc1cccc2c1C(=O)c1c(O)c3c(c(O)c1C2=O)C[C@@](O)(C(=O)CO)C[C@@H]3O[C@H]1C[C@H](N)[C@H](O)[C@H](C)O1 [DOXORUBICIN],0.001

# Test system: SK-MEL-2
# Assay: Cytotoxicity against human SK-MEL-2 cells by sulforhodamine B method
# Assay type: functional
# Settings: read-out: ED50 (the source's name)
row,SMILES,EC50 [µg/mL]
1,C=C[C@@](C)(CC[C@H]1C(C)=CC[C@H]2C(C)(C)CCC[C@]12C)O[C@@H]1O[C@@H](C)[C@H](O)[C@@H](O)[C@H]1OC(C)=O,> 10
2,C=C[C@@](C)(CCC1=C(C)[C@H](OO)C[C@H]2C(C)(C)CCC[C@]12C)O[C@@H]1O[C@@H](C)[C@@H](OC(C)=O)[C@H](O)[C@H]1O,> 10
3,C=C[C@@](C)(CC[C@H]1C(C)=CC[C@H]2C(C)(C)CCC[C@]12C)O[C@@H]1O[C@@H](C)[C@H](OC(C)=O)[C@@H](O)[C@H]1O,> 10
4,C=C[C@@](C)(CC[C@H]1C(C)=CC[C@H]2C(C)(C)CCC[C@]12C)O[C@@H]1O[C@@H](C)[C@H](O)[C@@H](OC(C)=O)[C@H]1O,> 10
5,COc1cccc2c1C(=O)c1c(O)c3c(c(O)c1C2=O)C[C@@](O)(C(=O)CO)C[C@@H]3O[C@H]1C[C@H](N)[C@H](O)[C@H](C)O1 [DOXORUBICIN],0.002

# Test system: HCT-15
# Assay: Cytotoxicity against human HCT15 cells by sulforhodamine B method
# Assay type: functional
# Settings: read-out: ED50 (the source's name)
row,SMILES,EC50 [µg/mL]
1,C=C[C@@](C)(CC[C@H]1C(C)=CC[C@H]2C(C)(C)CCC[C@]12C)O[C@@H]1O[C@@H](C)[C@H](O)[C@@H](O)[C@H]1OC(C)=O,> 10
2,C=C[C@@](C)(CCC1=C(C)[C@H](OO)C[C@H]2C(C)(C)CCC[C@]12C)O[C@@H]1O[C@@H](C)[C@@H](OC(C)=O)[C@H](O)[C@H]1O,> 10
3,C=C[C@@](C)(CC[C@H]1C(C)=CC[C@H]2C(C)(C)CCC[C@]12C)O[C@@H]1O[C@@H](C)[C@H](OC(C)=O)[C@@H](O)[C@H]1O,> 10
4,C=C[C@@](C)(CC[C@H]1C(C)=CC[C@H]2C(C)(C)CCC[C@]12C)O[C@@H]1O[C@@H](C)[C@H](O)[C@@H](OC(C)=O)[C@H]1O,> 10
5,COc1cccc2c1C(=O)c1c(O)c3c(c(O)c1C2=O)C[C@@](O)(C(=O)CO)C[C@@H]3O[C@H]1C[C@H](N)[C@H](O)[C@H](C)O1 [DOXORUBICIN],0.006

# Test system: SNB-19
# Assay: Cytotoxicity against human SNB19 cells by sulforhodamine B method
# Assay type: functional
# Settings: read-out: ED50 (the source's name)
row,SMILES,EC50 [µg/mL]
1,C=C[C@@](C)(CC[C@H]1C(C)=CC[C@H]2C(C)(C)CCC[C@]12C)O[C@@H]1O[C@@H](C)[C@H](O)[C@@H](O)[C@H]1OC(C)=O,> 10
2,C=C[C@@](C)(CCC1=C(C)[C@H](OO)C[C@H]2C(C)(C)CCC[C@]12C)O[C@@H]1O[C@@H](C)[C@@H](OC(C)=O)[C@H](O)[C@H]1O,> 10
3,C=C[C@@](C)(CC[C@H]1C(C)=CC[C@H]2C(C)(C)CCC[C@]12C)O[C@@H]1O[C@@H](C)[C@H](OC(C)=O)[C@@H](O)[C@H]1O,> 10
4,C=C[C@@](C)(CC[C@H]1C(C)=CC[C@H]2C(C)(C)CCC[C@]12C)O[C@@H]1O[C@@H](C)[C@H](O)[C@@H](OC(C)=O)[C@H]1O,> 10
5,COc1cccc2c1C(=O)c1c(O)c3c(c(O)c1C2=O)C[C@@](O)(C(=O)CO)C[C@@H]3O[C@H]1C[C@H](N)[C@H](O)[C@H](C)O1 [DOXORUBICIN],0.002

# Test system: U-251
# Assay: Cytotoxicity against human U251 cells by sulforhodamine B method
# Assay type: functional
# Settings: read-out: ED50 (the source's name)
row,SMILES,EC50 [µg/mL]
1,C=C[C@@](C)(CC[C@H]1C(C)=CC[C@H]2C(C)(C)CCC[C@]12C)O[C@@H]1O[C@@H](C)[C@H](O)[C@@H](O)[C@H]1OC(C)=O,> 10
2,C=C[C@@](C)(CCC1=C(C)[C@H](OO)C[C@H]2C(C)(C)CCC[C@]12C)O[C@@H]1O[C@@H](C)[C@@H](OC(C)=O)[C@H](O)[C@H]1O,> 10
3,C=C[C@@](C)(CC[C@H]1C(C)=CC[C@H]2C(C)(C)CCC[C@]12C)O[C@@H]1O[C@@H](C)[C@H](OC(C)=O)[C@@H](O)[C@H]1O,> 10
4,C=C[C@@](C)(CC[C@H]1C(C)=CC[C@H]2C(C)(C)CCC[C@]12C)O[C@@H]1O[C@@H](C)[C@H](O)[C@@H](OC(C)=O)[C@H]1O,> 10
5,COc1cccc2c1C(=O)c1c(O)c3c(c(O)c1C2=O)C[C@@](O)(C(=O)CO)C[C@@H]3O[C@H]1C[C@H](N)[C@H](O)[C@H](C)O1 [DOXORUBICIN],0.001

# Test system: SW-620
# Assay: Cytotoxicity against human SW620 cells by sulforhodamine B method
# Assay type: functional
# Settings: read-out: ED50 (the source's name)
row,SMILES,EC50 [µg/mL]
1,C=C[C@@](C)(CC[C@H]1C(C)=CC[C@H]2C(C)(C)CCC[C@]12C)O[C@@H]1O[C@@H](C)[C@H](O)[C@@H](O)[C@H]1OC(C)=O,> 10
2,C=C[C@@](C)(CCC1=C(C)[C@H](OO)C[C@H]2C(C)(C)CCC[C@]12C)O[C@@H]1O[C@@H](C)[C@@H](OC(C)=O)[C@H](O)[C@H]1O,> 10
3,C=C[C@@](C)(CC[C@H]1C(C)=CC[C@H]2C(C)(C)CCC[C@]12C)O[C@@H]1O[C@@H](C)[C@H](OC(C)=O)[C@@H](O)[C@H]1O,> 10
4,C=C[C@@](C)(CC[C@H]1C(C)=CC[C@H]2C(C)(C)CCC[C@]12C)O[C@@H]1O[C@@H](C)[C@H](O)[C@@H](OC(C)=O)[C@H]1O,> 10
5,COc1cccc2c1C(=O)c1c(O)c3c(c(O)c1C2=O)C[C@@](O)(C(=O)CO)C[C@@H]3O[C@H]1C[C@H](N)[C@H](O)[C@H](C)O1 [DOXORUBICIN],0.003

# Test system: SK-OV-3
# Assay: Cytotoxicity against human SKOV3 cells by sulforhodamine B method
# Assay type: functional
# Settings: read-out: ED50 (the source's name)
row,SMILES,EC50 [µg/mL]
1,C=C[C@@](C)(CC[C@H]1C(C)=CC[C@H]2C(C)(C)CCC[C@]12C)O[C@@H]1O[C@@H](C)[C@H](O)[C@@H](O)[C@H]1OC(C)=O,> 10
2,C=C[C@@](C)(CCC1=C(C)[C@H](OO)C[C@H]2C(C)(C)CCC[C@]12C)O[C@@H]1O[C@@H](C)[C@@H](OC(C)=O)[C@H](O)[C@H]1O,> 10
3,C=C[C@@](C)(CC[C@H]1C(C)=CC[C@H]2C(C)(C)CCC[C@]12C)O[C@@H]1O[C@@H](C)[C@H](OC(C)=O)[C@@H](O)[C@H]1O,> 10
4,C=C[C@@](C)(CC[C@H]1C(C)=CC[C@H]2C(C)(C)CCC[C@]12C)O[C@@H]1O[C@@H](C)[C@H](O)[C@@H](OC(C)=O)[C@H]1O,> 10
5,COc1cccc2c1C(=O)c1c(O)c3c(c(O)c1C2=O)C[C@@](O)(C(=O)CO)C[C@@H]3O[C@H]1C[C@H](N)[C@H](O)[C@H](C)O1 [DOXORUBICIN],0.01
